From patent US8791132B2, “Compounds and methods for treatment of hypertension” (Medivation Technologies, Inc., priority 2011, dated 2014) come the findings set out here.

Where two headings read alike, the source gives them in different places.

Test [1] deals with T1, human recombinant adrenergic α2B receptor (Homo sapiens, UniProt P18089).
T1 construct: expressed in transfected cells; host or cells: CHO-K1
T1 sequence (P18089 1-450): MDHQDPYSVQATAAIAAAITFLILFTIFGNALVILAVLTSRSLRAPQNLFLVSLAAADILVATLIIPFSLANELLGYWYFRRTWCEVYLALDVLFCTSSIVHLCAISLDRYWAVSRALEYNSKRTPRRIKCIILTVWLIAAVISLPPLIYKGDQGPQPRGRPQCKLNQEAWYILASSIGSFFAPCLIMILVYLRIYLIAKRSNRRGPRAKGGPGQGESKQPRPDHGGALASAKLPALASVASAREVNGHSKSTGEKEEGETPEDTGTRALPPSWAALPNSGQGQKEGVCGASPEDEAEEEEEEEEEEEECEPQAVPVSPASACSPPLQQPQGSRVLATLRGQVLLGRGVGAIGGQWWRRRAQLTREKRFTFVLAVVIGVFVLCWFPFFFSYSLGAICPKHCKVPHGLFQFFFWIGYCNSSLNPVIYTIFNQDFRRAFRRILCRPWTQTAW
The experiment in a line: Radioligand binding, adrenergic α2B ([3H]Rauwolscine). The settings on record: for Percentage inhibition of ligand binding, Adrenergic α2B (0.03 μM) / Percentage inhibition of ligand binding, Adrenergic α2B: 0.03 µM. Summed up:
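Membranes from CHO-K1 cells expressing human recombinant α2B, in 50 mM Tris-HCl pH 7.4, 12.5 mM MgCl2, 1 mM EDTA, 0.2% BSA, incubated with compound and 2.5 nM [3H]Rauwolscine, 60 min, 25 °C.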

Test [2] has as its target T2, rat adrenergic α1B receptor (Rattus norvegicus, UniProt P15823).
T2 construct: rat adrenergic α1B receptor obtained from Wistar Rat liver; from tissue; host or cells: Wistar rat liver
T2 sequence (P15823 1-515): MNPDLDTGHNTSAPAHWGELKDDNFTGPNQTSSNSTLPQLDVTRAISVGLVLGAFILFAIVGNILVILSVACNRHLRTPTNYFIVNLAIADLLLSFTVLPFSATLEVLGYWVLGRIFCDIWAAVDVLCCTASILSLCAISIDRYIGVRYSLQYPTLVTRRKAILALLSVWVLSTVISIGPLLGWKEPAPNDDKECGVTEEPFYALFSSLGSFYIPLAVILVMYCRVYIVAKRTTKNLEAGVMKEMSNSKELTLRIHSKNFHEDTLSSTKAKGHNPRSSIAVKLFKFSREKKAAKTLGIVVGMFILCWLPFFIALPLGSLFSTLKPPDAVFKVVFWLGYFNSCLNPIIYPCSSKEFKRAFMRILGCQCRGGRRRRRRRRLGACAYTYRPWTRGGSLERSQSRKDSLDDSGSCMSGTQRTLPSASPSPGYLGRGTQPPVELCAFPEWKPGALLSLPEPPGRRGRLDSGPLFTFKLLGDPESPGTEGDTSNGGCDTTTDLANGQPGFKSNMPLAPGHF
In words: Radioligand binding, adrenergic α1B ([3H]Prazosin). The settings on record: for Percentage inhibition of ligand binding, Adrenergic α1B (0.1 μM) / Percentage inhibition of ligand binding, Adrenergic α1B: 0.1 µM. Put shortly: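 Specific binding, taken as total minus that remaining with 10 μM phentolamine, is measured after filtration and counting. Rat liver receptor preparation and 0.25 nM [3H]prazosin are incubated with compound in 50 mM Tris-HCl (pH 7.4, 0.5 mM EDTA) at 25° C for 60 min. Activity is reported as percent inhibition.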

For test [3], the target named is T3, human recombinant adrenergic α2A receptor (Homo sapiens, UniProt P08913).
T3 construct: expressed in transfected cells; host or cells: insect Sf9 cells
T3 sequence (P08913 1-465): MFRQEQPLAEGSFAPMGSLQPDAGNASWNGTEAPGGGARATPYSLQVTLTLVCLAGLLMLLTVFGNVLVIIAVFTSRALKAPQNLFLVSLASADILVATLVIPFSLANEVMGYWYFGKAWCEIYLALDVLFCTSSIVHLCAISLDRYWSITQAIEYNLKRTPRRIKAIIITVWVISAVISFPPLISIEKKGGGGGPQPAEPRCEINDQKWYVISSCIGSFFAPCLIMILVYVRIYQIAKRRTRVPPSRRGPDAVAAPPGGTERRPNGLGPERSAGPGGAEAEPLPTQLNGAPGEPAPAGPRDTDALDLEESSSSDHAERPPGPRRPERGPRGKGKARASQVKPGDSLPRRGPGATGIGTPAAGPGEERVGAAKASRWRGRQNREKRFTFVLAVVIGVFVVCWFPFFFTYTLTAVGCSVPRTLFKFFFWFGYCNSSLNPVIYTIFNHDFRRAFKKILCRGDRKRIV
The experiment in a line: Radioligand binding, adrenergic α2A ([3H]MK-912). The settings on record: for Percentage inhibition of ligand binding, Adrenergic α2A (0.1 μM) / Percentage inhibition of ligand binding, Adrenergic α2A: 0.1 µM. Put shortly:
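Sf9 membranes, 1 nM [3H]MK-912, 60 min, 25 °C, Tris-HCl pH 7.4/MgCl2/EDTA buffer. NSB: 10 μM WB-4101. Filtration, counting; % inhibition of specific binding.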

Setting [4] is: compound at 0.03 μM, [3H]Rauwolscine, repeat datapoints each shown.
[5] abbreviates: compound at 0.1 μM, [3H]Prazosin, repeat datapoints each shown.
[6] abbreviates: compound at 0.1 μM, [3H]MK-912, repeat datapoints each shown.
[7] abbreviates: read-out: Percentage inhibition of ligand binding, Adrenergic α2B (0.03 μM), compound at 0.03 μM, [3H]Rauwolscine, repeat datapoints each shown.
[8] abbreviates: read-out: Percentage inhibition of ligand binding, Adrenergic α1B (0.1 μM), compound at 0.1 μM, [3H]Prazosin, repeat datapoints each shown.
The mark [9] stands for this setting: read-out: Percentage inhibition of ligand binding, Adrenergic α2A (0.1 μM), compound at 0.1 μM, [3H]MK-912, repeat datapoints each shown.
[10] abbreviates: compound at 0.03 μM, [3H]Rauwolscine, repeat assays, each datapoint shown.
Where [11] appears, read: compound at 0.1 μM, [3H]Prazosin, repeat assays, each datapoint shown.
Setting [12] is: compound at 0.1 μM, [3H]MK-912, repeat assays, each datapoint shown.

The term inhibition denotes the relative decrease from the control value, in per cent.

On to `Cc1ccc2c(c1)c1c(n2CC(O)c2cc[nH]c(=O)c2)CCN2CCCC12` (single isomer, unassigned) [II-132b, 4-(2-(2,3,5,6-tetrahydro-10-methyl-1H-indolizino[7,8-b]indol-7(11cH)-yl)-1-hydroxyethyl)pyridin-2(1H)-one], for which, in test [1] (setting [4]), the “Percentage inhibition of ligand binding, Adrenergic α2B (0.03 μM)” value (“Percentage inhibition … (0.03 μM)” below) is recorded as 70%. The “Percentage inhibition of ligand binding, Adrenergic α1B (0.1 μM)” value in test [2] (setting [5]) was determined as 68%. The “Percentage inhibition of ligand binding, Adrenergic α2A (0.1 μM)” value in test [3] (setting [6]) was found to be 22%.
For `Cc1ccc(CCn2c3c(c4cc(Cl)cnc42)C2CCCN2CC3)cn1` (single isomer, unassigned) [137b], in that order: 30%, 23% and 6%.
For `Cc1ccc2c(c1)c1c(n2CC(O)c2ccc(F)cc2)CCN2CCCC12` (single isomer, unassigned) [II-120b, 1-(4-fluoro-phenyl)-2-(9-methyl-1,2,3,4,5,10c-hexahydro-3a,6-diaza-cyclopenta[c]fluoren-6-yl)-ethanol], in that order: 98%, 100% and 98%.
Taken in the same sequence, the figures for `Cc1ccc2c(c1)c1c(n2CC(O)c2ccc(F)cc2F)CCN(C)CC1` (single isomer, unassigned) [172a] were 65%, 54% and 18%.
For the compound `C/C(=C\n1c2c(c3cc(C)ccc31)C1CCCN1CC2)c1ccc(C)nc1` (single isomer, unassigned) [193b, 10-methyl-7-(2-(6-methylpyridin-3-yl)prop-1-enyl)-2,3,5,6,7,11c-hexahydro-1H-indolizino[7,8-b]indole], the inhibition at 0.03 µM in test [1] (setting [7]) turned out to be 104%. Also, the inhibition at 0.1 µM in test [2] (setting [8]) turned out to be 91%; in test [3] (setting [9]) it was 83%.
As for `Cc1ccc2c(c1)c1c(n2CC(O)c2ccncc2)CN(C)CC1` (stereo not drawn) [8a], the “Percentage inhibition of ligand binding, Adrenergic α2B” value in test [1] (setting [10]) amounted to 22%. The “Percentage inhibition of ligand binding, Adrenergic α1B” value in test [2] (setting [11]) is recorded as 39%. Besides, in test [3] (setting [12]), the “Percentage inhibition of ligand binding, Adrenergic α2A” value is listed as 15%.
Consider `Cc1ccc2c(c1)c1c(n2CC(N=[N+]=[N-])c2ccc(C(N)=O)nc2)CCN(C)C1` (stereo not drawn) [V-22, 5-[1-azido-2-(2,8-dimethyl-1,2,3,4-tetrahydro-pyrido[4,3-b]indol-5-yl)-ethyl]-pyridine-2-carboxylic acid amide], for which, in test [1] (setting [7]), the inhibition at 0.03 µM came out at 90%. Besides, the inhibition at 0.1 µM in test [2] (setting [8]) was found to be 28%; in test [3] (setting [9]), 18%.
As to `CN1CCc2c(c3cc(Cl)ccc3n2CC(C)(O)c2cccnc2)C1` (stereo not drawn) [31b], in test [1] (compound at 0.03 μM, [3H]Rauwolscine, repeat assays, each datapoint shown, read-out: Percentage inhibition of ligand binding, Adrenergic α2B), the inhibition at 0.03 µM was 36%. Further, the inhibition at 0.1 µM in test [2] (compound at 0.1 μM, [3H]Prazosin, repeat assays, each datapoint shown, read-out: Percentage inhibition of ligand binding, Adrenergic α1B) amounted to 3%; in test [3] (compound at 0.1 μM, [3H]MK-912, repeat assays, each datapoint shown, read-out: Percentage inhibition of ligand binding, Adrenergic α2A), 14%.
Regarding `Cc1ccc2c(c1)c1c(n2CC(NC(C)C)c2ccncc2)CCN(C)C1` (stereo not drawn) [II-10, [2-(2,8-dimethyl-1,2,3,4-tetrahydro-pyrido[4,3-b]indol-5-yl)-1-pyridin-4-yl-ethyl]-isopropyl-amine], the inhibition at 0.03 µM in test [1] (0.03 μM compound, read-out: Percentage inhibition of ligand binding, Adrenergic α2B) came out at 47%. In addition, the inhibition at 0.1 µM in test [2] (0.1 μM compound, read-out: Percentage inhibition of ligand binding, Adrenergic α1B) amounted to 7%; in test [3] (0.1 μM compound, read-out: Percentage inhibition of ligand binding, Adrenergic α2A) it was 10%.
Regarding `Cc1ccc2c(c1)c1c(n2CC(N)c2ccncc2)CCN(C)CC1` (stereo not drawn) [compound 154, 2-(3,9-dimethyl-2,3,4,5-tetrahydroazepino[4,5-b]indol-6(1H)-yl)-1-(pyridin-4-yl)ethanamine], the “Percentage inhibition … (0.03 μM)” value in test [1] (setting [4]) is given as 58%. Further, the “Percentage inhibition of ligand binding, Adrenergic α1B (0.1 μM)” value in test [2] (setting [5]) amounted to 86%. Further, the “Percentage inhibition of ligand binding, Adrenergic α2A (0.1 μM)” value in test [3] (setting [6]) worked out at 15%.
As for `COc1cccc2c3c(n(CC(O)c4ccncc4)c12)CCN(C)C3` (stereo not drawn) [compound 44, 2-(6-methoxy-2-methyl-3,4-dihydro-1H-pyrido[4,3-b]indol-5(2H)-yl)-1-(pyridin-4-yl)ethanol], the “Percentage inhibition of ligand binding, Adrenergic α2B” value in test [1] (setting [10]) turned out to be 56%. Further, the “Percentage inhibition of ligand binding, Adrenergic α1B” value in test [2] (setting [11]) is −3%. For the same compound, the “Percentage inhibition of ligand binding, Adrenergic α2A” value in test [3] (setting [12]) is −1%.
Consider `Cc1ccc2c(c1)c1c(n2CC(CC(O)C(C)(C)C)c2ccncc2)CCN(C)C1` (single isomer, unassigned) [II-227c, 6-(2,8-dimethyl-1,2,3,4-tetrahydro-pyrido[4,3-b]indol-5-yl)-2,2-dimethyl-5-pyridin-4-yl-hexan-3-ol], for which the “Percentage inhibition … (0.03 μM)” value in test [1] (setting [4]) was 94%. In test [2] (setting [5]), the “Percentage inhibition of ligand binding, Adrenergic α1B (0.1 μM)” value is 20%. In test [3] (setting [6]), the “Percentage inhibition of ligand binding, Adrenergic α2A (0.1 μM)” value was 24%.
`Cc1cnc2c(c1)c1c(n2CC(O)c2ccncc2)CCN(C)C1` (single isomer, unassigned) [55a, 2-(3,6-dimethyl-5,6,7,8-tetrahydro-1,6,9-triaza-fluoren-9-yl)-1-pyridin-4-yl-ethanol]: in test [1] (setting [10]), the “Percentage inhibition of ligand binding, Adrenergic α2B” value was 14%. Besides, the “Percentage inhibition of ligand binding, Adrenergic α1B” value in test [2] (setting [11]) is reported as 28%. In addition, the “Percentage inhibition of ligand binding, Adrenergic α2A” value in test [3] (setting [12]) was 11%.
For `Cc1cnc2c(c1)c1c(n2CC(O)c2ccc(C(N)=O)nc2)CCN(C)C1` (stereo not drawn) [II-111, 5-[2-(3,6-dimethyl-5,6,7,8-tetrahydro-1,6,9-triaza-fluoren-9-yl)-1-hydroxy-ethyl]-pyridine-2-carboxylic acid amide], in test [1] (setting [7]), the inhibition at 0.03 µM was determined as 35%. Also, the figures for the inhibition at 0.1 µM in test [2] (setting [8]) and in test [3] (setting [9]) were 42% and 3%, respectively.
Regarding `Cc1ccc2c(c1)c1c(n2CC(C)(O)c2ccccn2)CN(C)CC1` (single isomer, unassigned) [16a, 1-(2,6-dimethyl-1,2,3,4-tetrahydro-β-carbolin-9-yl)-2-pyridin-2-yl-propan-2-ol], in test [1] (setting [10]), the “Percentage inhibition of ligand binding, Adrenergic α2B” value turned out to be 33%. Moreover, in test [2] (setting [11]), the “Percentage inhibition of ligand binding, Adrenergic α1B” value is listed as 47%. Moreover, the “Percentage inhibition of ligand binding, Adrenergic α2A” value in test [3] (setting [12]) came to 9%.
As to `Cc1ccc(CCn2c3c(c4c(F)ccc(Cl)c42)CN(C)CC3)cn1` [II-253], in test [1] (setting [7]), the inhibition at 0.03 µM is 16%. Further, the inhibition at 0.1 µM in test [2] (setting [8]) was 9%; in test [3] (setting [9]), 54%.
